Laboratory results: article PMC11052071, “Novel JAK Inhibitors to Reduce Graft-Versus-Host Disease after Allogeneic Hematopoietic Cell Transplantation in a Preclinical Mouse Model” (Molecules, 2024)
pIC50: −log10 of the molar value.

Key:
[1] = Mouse PK after subcutaneous injection; assay type: in vivo; conditions: 2 mg/kg s.c., CD-1 mice, time points up to 6 h; WU derivatives compared to BARI
JAK3 = molecular target: T1, JAK3 (Homo sapiens, UniProt P52333); assay: Z'-LYTE enzyme activity assay (SelectScreen Kinase Profiling), JAK3
T1 sequence (P52333 1-1124): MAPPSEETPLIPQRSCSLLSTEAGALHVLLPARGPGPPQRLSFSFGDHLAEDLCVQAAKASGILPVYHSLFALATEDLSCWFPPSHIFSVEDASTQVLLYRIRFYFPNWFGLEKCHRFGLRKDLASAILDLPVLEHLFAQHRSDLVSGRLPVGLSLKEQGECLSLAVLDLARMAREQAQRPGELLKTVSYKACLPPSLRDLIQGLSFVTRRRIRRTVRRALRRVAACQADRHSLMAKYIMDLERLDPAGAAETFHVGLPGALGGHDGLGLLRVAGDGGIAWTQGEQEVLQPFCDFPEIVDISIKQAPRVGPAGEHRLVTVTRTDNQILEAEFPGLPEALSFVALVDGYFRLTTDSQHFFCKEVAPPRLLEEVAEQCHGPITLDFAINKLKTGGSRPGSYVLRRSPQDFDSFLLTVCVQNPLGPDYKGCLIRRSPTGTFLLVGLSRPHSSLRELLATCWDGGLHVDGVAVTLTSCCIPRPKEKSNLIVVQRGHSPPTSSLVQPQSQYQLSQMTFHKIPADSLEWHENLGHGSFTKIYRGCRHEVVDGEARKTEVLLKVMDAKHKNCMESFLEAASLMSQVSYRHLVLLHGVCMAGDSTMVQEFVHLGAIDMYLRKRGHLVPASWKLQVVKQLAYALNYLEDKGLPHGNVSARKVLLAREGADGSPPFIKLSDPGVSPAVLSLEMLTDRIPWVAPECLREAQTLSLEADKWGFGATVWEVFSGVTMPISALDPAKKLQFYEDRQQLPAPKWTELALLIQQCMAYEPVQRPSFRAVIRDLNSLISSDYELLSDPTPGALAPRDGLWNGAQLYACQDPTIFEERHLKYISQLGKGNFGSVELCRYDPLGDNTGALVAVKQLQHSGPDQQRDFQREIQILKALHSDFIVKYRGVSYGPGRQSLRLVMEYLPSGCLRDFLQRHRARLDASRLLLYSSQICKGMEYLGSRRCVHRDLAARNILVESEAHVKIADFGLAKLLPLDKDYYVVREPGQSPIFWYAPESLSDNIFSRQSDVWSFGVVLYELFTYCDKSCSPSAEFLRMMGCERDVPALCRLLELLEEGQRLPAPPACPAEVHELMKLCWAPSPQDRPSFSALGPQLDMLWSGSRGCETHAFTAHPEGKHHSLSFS

[2] = system: phosphorylation of STAT1, STAT3, and STAT5; assay: STAT phosphorylation in primary human T cells (Western blotting); assay type: cell-based; conditions: starvation 1 h, stimulated with 10 ng/mL IFN-α
From the text: Subsequently, we examined the ability of WU4 and WU8 to inhibit JAK signaling by measuring the levels of phosphorylation of STATs, downstream transcription factors of JAK signaling. […] This inhibitory capacity of WU4 and WU8 correlates with their IC50 values (Figure 1J) and the ability to reduce CXCR3 expression (Figure 3). We then decided to further investigate WU4 and WU8 as potent novel JAK inhibitors for the prevention of GvHD in our preclinical mouse model of allo-HCT.
Figure 4 Effect of WU4 and WU8 on the inhibition of JAK signaling in primary human T cells. STAT phosphorylation was determined as the indicator of JAK signaling. Primary human T cells were obtained from the peripheral blood of healthy donors. […] The phosphorylation of STATs was measured by Western blotting. Total […] and GAPDH served as loading controls.

TYK2 = TYK2 (Homo sapiens, UniProt P29597); assay: Z'-LYTE enzyme activity assay (SelectScreen Kinase Profiling), TYK2
Chain of TYK2 (P29597 whole entry): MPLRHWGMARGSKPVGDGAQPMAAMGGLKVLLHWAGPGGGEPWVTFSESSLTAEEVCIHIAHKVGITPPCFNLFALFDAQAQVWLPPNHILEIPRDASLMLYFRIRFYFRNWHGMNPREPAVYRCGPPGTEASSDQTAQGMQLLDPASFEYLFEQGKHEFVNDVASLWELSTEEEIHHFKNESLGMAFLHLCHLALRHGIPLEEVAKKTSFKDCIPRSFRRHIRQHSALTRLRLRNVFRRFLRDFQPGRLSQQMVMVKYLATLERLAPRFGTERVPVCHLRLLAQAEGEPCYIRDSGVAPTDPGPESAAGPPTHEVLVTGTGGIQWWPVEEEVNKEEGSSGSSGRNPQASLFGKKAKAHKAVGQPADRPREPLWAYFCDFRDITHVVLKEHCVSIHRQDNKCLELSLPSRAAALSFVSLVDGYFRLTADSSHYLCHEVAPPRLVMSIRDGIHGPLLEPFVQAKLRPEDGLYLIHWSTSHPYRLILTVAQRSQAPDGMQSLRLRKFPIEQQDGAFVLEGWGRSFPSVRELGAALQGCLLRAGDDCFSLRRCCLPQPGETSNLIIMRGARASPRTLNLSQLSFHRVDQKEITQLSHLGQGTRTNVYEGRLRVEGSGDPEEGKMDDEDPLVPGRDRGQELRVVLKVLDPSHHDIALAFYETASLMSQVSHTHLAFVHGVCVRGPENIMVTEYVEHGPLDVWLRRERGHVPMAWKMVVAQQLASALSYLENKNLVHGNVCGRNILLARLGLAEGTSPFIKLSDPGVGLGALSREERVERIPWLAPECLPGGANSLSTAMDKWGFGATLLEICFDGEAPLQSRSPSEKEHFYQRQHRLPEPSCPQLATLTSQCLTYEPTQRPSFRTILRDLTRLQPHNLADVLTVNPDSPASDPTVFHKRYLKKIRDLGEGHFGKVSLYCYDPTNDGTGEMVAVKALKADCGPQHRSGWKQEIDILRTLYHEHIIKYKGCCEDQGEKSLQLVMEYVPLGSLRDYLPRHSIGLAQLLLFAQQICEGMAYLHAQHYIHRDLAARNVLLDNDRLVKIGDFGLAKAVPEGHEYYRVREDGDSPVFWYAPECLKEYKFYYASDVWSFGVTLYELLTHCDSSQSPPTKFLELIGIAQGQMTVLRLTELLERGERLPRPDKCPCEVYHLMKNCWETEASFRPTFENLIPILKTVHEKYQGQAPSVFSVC

T-bet = T-bet expression in activated primary murine T cells (flow cytometry); assay type: cell-based, B6 mice; conditions: anti-CD3/CD28 activation beads, 3 days, dose-dependent
From the text: WU6 is a derivative of WU4, incorporating a trifluoromethane sulfonamide for WU6 instead of an ethyl sulfonamide for WU4. […]. […] Subsequently, we examined the effect of WU6 on the expression of CXCR3 and T-bet (the master transcription factor of Th1 and cytotoxic T cell differentiation) in primary murine T cells.
Figure 8 Effect of WU6 on the expression of CXCR3 and T-bet in vitro and GvHD in mouse model of allo-HCT. (A–D) Primary T cells were isolated from B6 and treated with WU6 at indicated doses for 3 days in the presence of anti-CD3/CD28 activation beads. After 3 days, the expression of CXCR3 (A,B) and T-bet (C,D) in the CD4 and CD8 was determined by flow cytometry. Survival rate and (E) clinical GvHD scores (F) of mice treated with WU6 after allo-HCT. (G,H) % BM-derived B cells (B220+) and T cells (CD3+) were examined in the peripheral blood on day 27 after allo-HCT. * p < 0.05, ** p < 0.01, and *** p < 0.001. All error bars are represented as mean ± standard deviation.
T cells from in vitro primary murine T cell culture, fresh peripheral blood, or whole splenocytes were analyzed according to cell surface and intracellular markers. […] All cells were run on a ZE5 Cell Analyzer (BD Biosciences, Mountain View, CA, USA) or Attune® NxT (Thermofisher Scientific, Waltham, MA, USA) and analyzed with the FlowJo software, version 10.9.0 (FlowJo LLC., Ashland, OR, USA). […]

SMILES | plasma drug concentration (mouse PK) [1] | pIC50 (JAK3; IC50 JAK3, ATP at 1 mM) | pIC50 (JAK3; IC50 JAK3, ATP at app. Km) | phosphorylation of STATs [2] | pIC50 (TYK2; IC50 TYK2, ATP at 1 mM) | pIC50 (TYK2; IC50 TYK2, ATP at app. Km) | T-bet expression in CD4 and CD8 T cells (T-bet)
CCS(=O)(=O)NC1CC2(C1)CC(CC#N)(n1cc(-c3ncnc4[nH]ccc34)cn1)C2 (centres unmarked) [WU4] | comparable PK to BARI throughout all time points | 7.08 | 8.94 | inhibit the phosphorylation of STAT1, STAT3, and STAT5 | 8.96 | 9.38 | 
N#CCC1(n2cc(-c3ncnc4[nH]ccc34)cn2)CC2(CC(NS(=O)(=O)C(F)(F)F)C2)C1 (centres unmarked) [WU6] |  | 6.51 | 8.19 |  | 8.19 | 9.12 | significantly downregulated
N#CCC1(n2cc(-c3ncnc4[nH]ccc34)cn2)CCS(=O)(=O)CC1 [WU8] | significant increase in plasma drug concentration at 2 h post-dose | 6.26 | 7.74 | inhibit the phosphorylation of STAT1, STAT3, and STAT5 | 7.31 | 8.55 | 
